According to paper PMC5384750 (PLoS ONE, 2017):

Experiments:
[1] = test system: IDE (S10 extract or rIDE); type: in vitro ADME; details: 20 ng sp6 or 30 ng vp6 with 5 μg S10 extract or 2 ng rIDE, up to 60 min; Western blot densitometry; at least 3 independent experiments per setting; value depends on the experimental setting
Procedure: Fig 9 Multiplication of PTAPPA-motifs stabilizes p6. 20 ng of sp6 or 30 ng of vp6 were incubated either with 5 μg S10 extract (A/B/C) or 2 ng of rIDE (D) for up to 60 min. Degradation efficiency was quantified via densitometric analyses of Western blots. Values represent the arithmetic mean ± SD of at least 3 independent experiments for each setting.
Typically 5 μg S10 were incubated with inhibitor or buffer and 20–100 ng sp6 at 37°C for 30 min. Reactions were stopped by addition of sample buffer and incubation at 95°C for 5 min. Remaining p6 was detected by Western blotting using an anti-p6 rabbit antiserum. Alternatively, 10 ng of BODIPY FL-labeled sp6 (sp6BY) were used as substrate and detected directly in the polyacrylamide gel by fluorescence scanning. In some experiments the amount of p6 was densitometrically quantified with the software AIDA (Raytest). For the in vitro degradation of amyloid-β 10 ng of Aβ-FITC (abcam) were used analogously to sp6BY. For the in vitro degradation of viral p6, VLPs were pelleted and lysed in IDE enzyme buffer (150 mM NaCl, 50 mM Tris pH 7.4, 0.5% (v/v) Triton X-100). The p6 content was estimated by Western blotting using a dilution series of sp6 with known concentrations. Equivalents of 15 ng were used for digestion experiments and subsequently detected by Western blotting. […]

[2] = target: T1, insulin-degrading enzyme (IDE) (Homo sapiens, UniProt P14735); assay: Inhibition of / competition with sp6 or sp6BY degradation in S10 extract; type: biochemical; details: 10 ng sp6BY, 5 μg S10 extract, 30 min, 37°C; fluorescence; mean of at least three independent experiments
T1 construct: endogenous in cells; host or cells: HeLa cells (cytosolic S10 extract)
T1 sequence (P14735 whole entry): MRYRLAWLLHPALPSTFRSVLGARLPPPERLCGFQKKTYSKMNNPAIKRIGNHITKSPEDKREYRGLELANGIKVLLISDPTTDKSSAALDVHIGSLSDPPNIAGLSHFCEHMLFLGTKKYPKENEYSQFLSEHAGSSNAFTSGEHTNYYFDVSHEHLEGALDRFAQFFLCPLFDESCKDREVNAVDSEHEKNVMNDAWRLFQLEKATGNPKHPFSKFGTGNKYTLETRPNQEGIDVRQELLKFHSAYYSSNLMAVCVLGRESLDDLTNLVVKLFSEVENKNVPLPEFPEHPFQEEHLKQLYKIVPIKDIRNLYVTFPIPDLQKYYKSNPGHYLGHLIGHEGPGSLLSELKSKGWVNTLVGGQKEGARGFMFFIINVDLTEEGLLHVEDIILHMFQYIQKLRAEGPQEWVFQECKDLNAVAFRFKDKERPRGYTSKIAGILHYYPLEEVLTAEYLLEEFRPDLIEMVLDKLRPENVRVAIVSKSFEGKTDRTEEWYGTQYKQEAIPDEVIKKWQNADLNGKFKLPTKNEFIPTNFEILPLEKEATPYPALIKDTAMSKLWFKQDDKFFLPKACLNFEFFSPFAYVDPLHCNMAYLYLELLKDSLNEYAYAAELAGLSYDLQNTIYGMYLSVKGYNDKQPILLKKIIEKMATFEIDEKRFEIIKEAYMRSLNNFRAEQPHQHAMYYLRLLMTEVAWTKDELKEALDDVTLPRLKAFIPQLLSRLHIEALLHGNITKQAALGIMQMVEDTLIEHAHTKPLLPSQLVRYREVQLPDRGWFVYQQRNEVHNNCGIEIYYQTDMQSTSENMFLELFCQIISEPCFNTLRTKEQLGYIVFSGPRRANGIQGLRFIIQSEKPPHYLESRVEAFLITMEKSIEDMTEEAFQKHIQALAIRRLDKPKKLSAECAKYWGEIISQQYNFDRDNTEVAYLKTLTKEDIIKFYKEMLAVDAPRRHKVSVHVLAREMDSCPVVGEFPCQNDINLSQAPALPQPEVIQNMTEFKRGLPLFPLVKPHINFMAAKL
Procedure: (§1) For generation of S10, confluent dishes with HeLa cells were extensively washed and subsequently lysed with a modified S10 buffer (250 mM sucrose, 80 mM KCl, 10 mM Tris pH 7.6, 0.1% (v/v) Triton X-100 [91]). Debris and nuclei were removed by centrifugation at 10.000 × g for 10 min. Protein content was determined by BCA-Assay (Pierce) and aliquots stored at -80°C.
(§2) Reactions were stopped by addition of sample buffer and incubation at 95°C for 5 min. Remaining p6 was detected by Western blotting using an anti-p6 rabbit antiserum. Alternatively, 10 ng of BODIPY FL-labeled sp6 (sp6BY) were used as substrate and detected directly in the polyacrylamide gel by fluorescence scanning. In some experiments the amount of p6 was densitometrically quantified with the software AIDA (Raytest). For the in vitro degradation of amyloid-β 10 ng of Aβ-FITC (abcam) were used analogously to sp6BY. For the in vitro degradation of viral p6, VLPs were pelleted and lysed in IDE enzyme buffer (150 mM NaCl, 50 mM Tris pH 7.4, 0.5% (v/v) Triton X-100). The p6 content was estimated by Western blotting using a dilution series of sp6 with known concentrations. Equivalents of 15 ng were used for digestion experiments and subsequently detected by Western blotting. Experiments carried out with recombinant IDE (Calbiochem) were performed in IDE enzyme buffer.
Bestatin, Chymostatin, E-64, Leupeptin, Pepstatin, Phosphoramidon, Pefabloc SC, EDTA, Aprotinin, Antipain were purchased from Roche as part of a protease inhibitors set and used at the following concentrations: 74 μM Antipain; 130 μM Bestatin; 100 μM Chymostatin; 28 μM E-64; 1 μM Leupeptin; 1 μM Pepstatin; 600 nM Phosphoramidon; 4 mM Pefabloc SC; 1.3 mM EDTA; […]. […] (Phoenix Pharmaceuticals and Tocris), TPEN (Calbiochem), and NEM (Roche) were purchased from companies indicated.

[3] = target: T1, insulin-degrading enzyme (IDE); assay: Inhibition of Aβ-FITC degradation in S10 extract; type: biochemical; details: 10 ng FITC-labeled Aβ 1–40, 5 μg S10, 45 min, 37°C; fluorescence; four independent experiments
Procedure: as §2, with “[…] Reactions” for “Reactions”, “buffer. Recombinant FITC-labeled insulin was purchased from Sigma.” for “buffer.”
Supplementary file pone.0174254.s003.tif: S3 Fig p6 competes with the in vitro degradation of Aβ. […] Aβ-FITC was detected by measurement of fluorescence excitation. The band marked with * represents Aβ-oligomers and has been described earlier. (B) Band intensities were quantified for four independent experiments and values represent the arithmetic mean ± SD. […]

[4] = target: T2, recombinant IDE (rIDE) (Rattus norvegicus, UniProt P35559); assay: In vitro degradation by recombinant IDE (extent, kinetics, cleavage sites); type: biochemical; details: 30 min, 37°C
T2 construct: purchased Calbiochem
T2 sequence (P35559 whole entry): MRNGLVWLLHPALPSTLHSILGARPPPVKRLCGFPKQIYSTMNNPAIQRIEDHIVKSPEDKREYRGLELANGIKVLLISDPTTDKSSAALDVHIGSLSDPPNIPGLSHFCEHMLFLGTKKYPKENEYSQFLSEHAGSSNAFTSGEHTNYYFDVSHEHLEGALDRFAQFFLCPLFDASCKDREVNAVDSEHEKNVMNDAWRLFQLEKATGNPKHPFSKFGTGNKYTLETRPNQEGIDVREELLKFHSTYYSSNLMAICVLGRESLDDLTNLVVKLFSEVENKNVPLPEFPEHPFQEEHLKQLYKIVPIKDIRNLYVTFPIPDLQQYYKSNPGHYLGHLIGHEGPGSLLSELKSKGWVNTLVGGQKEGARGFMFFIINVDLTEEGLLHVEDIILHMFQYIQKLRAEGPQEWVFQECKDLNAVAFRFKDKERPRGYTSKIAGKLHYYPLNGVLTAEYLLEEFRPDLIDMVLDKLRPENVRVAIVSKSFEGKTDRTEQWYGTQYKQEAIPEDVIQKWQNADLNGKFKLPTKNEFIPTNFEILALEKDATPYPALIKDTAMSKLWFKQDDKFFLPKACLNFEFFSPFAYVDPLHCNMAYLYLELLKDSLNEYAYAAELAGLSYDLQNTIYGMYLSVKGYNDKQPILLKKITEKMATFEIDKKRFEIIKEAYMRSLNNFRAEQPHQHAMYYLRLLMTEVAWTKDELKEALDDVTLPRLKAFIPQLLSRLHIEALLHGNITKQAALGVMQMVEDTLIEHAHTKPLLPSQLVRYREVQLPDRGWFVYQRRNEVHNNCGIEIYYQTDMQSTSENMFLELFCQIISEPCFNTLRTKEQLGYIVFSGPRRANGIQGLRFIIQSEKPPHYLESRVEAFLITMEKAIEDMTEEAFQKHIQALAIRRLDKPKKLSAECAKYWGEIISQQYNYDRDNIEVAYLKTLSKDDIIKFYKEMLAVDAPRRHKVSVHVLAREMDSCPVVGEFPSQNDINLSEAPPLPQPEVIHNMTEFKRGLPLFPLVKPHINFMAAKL
Procedure: (A) 10 ng of sp6BY or insulin-FITC were incubated with indicated amounts of rIDE for 30 min at 37°C. Remaining amounts of sp6BY and insulin-FITC were detected by measurement of fluorescence excitation. (B) Results of four independently performed experiments. Values represent the arithmetic mean ± SD. (C) Increasing concentrations of sp6BY were incubated with rIDE for 10 min at 37°C. The velocities were calculated from the degradation of sp6BY and normalized for the amount of rIDE. Data points represent values from three independent experiments in a double-reciprocal Lineweaver-Burk plot.
Fig 8 Generation of stable p6 mutants. […] Reactions were stopped by adjusting the samples to 0.3% (w/v) […] and subsequently analyzed by mass spectrometry. Arrows above the primary sequence represent the detected cleavage sites, and initial and secondary cleavage sites are indicated as big or small arrows, respectively. […] (C) 10 ng of sp6BY were incubated with 250 μg/ml sp6 wt, 2xPTAPPA, 3xPTAPPA or only buffer and 5 μg S10 for 30 min at 37°C. sp6BY was detected by fluorescence emission and quantified. […]
Typically 5 μg S10 were incubated with inhibitor or buffer and 20–100 ng sp6 at 37°C for 30 min. […] Remaining p6 was detected by Western blotting using an anti-p6 rabbit antiserum. […] In some experiments the amount of p6 was densitometrically quantified with the software AIDA (Raytest). […]

[5] = In vitro degradation in cytosolic S10 HeLa cell extract; type: in vitro ADME; details: human, cytosolic S10 HeLa cell extract; 100 ng sp6, 5 μg S10 extract from HeLa cells, 37°C; Western blot (anti-p6), quantified; estimated from exponential decay; mean of 4 independent experiments
Procedure: as §1
Typically 5 μg S10 were incubated with inhibitor or buffer and 20–100 ng sp6 at 37°C for 30 min. Reactions were stopped by addition of sample buffer and incubation at 95°C for 5 min. Remaining p6 was detected by Western blotting using an anti-p6 rabbit antiserum. Alternatively, 10 ng of BODIPY FL-labeled sp6 (sp6BY) were used as substrate and detected directly in the polyacrylamide gel by fluorescence scanning. In some experiments the amount of p6 was densitometrically quantified with the software AIDA (Raytest). For the in vitro degradation of amyloid-β 10 ng of Aβ-FITC (abcam) were used analogously to sp6BY. For the in vitro degradation of viral p6, VLPs were pelleted and lysed in IDE enzyme buffer (150 mM NaCl, 50 mM Tris pH 7.4, 0.5% (v/v) Triton X-100). The p6 content was estimated by Western blotting using a dilution series of sp6 with known concentrations. Equivalents of 15 ng were used for digestion experiments and subsequently detected by Western blotting. Experiments carried out with recombinant IDE (Calbiochem) were performed in IDE enzyme buffer. Recombinant FITC-labeled insulin was purchased from Sigma.

Molecule: CC[C@H](C)[C@H](NC(=O)[C@@H]1CCCN1C(=O)[C@H](CCC(=O)O)NC(=O)[C@H](CCC(N)=O)NC(=O)[C@H](CCCCN)NC(=O)[C@H](CCC(N)=O)NC(=O)[C@H](CO)NC(=O)[C@@H]1CCCN1C(=O)[C@@H](NC(=O)[C@@H](NC(=O)[C@@H](NC(=O)[C@H](CCC(=O)O)NC(=O)[C@H](CCC(=O)O)NC(=O)CNC(=O)[C@H](Cc1ccccc1)NC(=O)[C@H](CCCNC(=N)N)NC(=O)[C@H](Cc1ccccc1)NC(=O)[C@H](CO)NC(=O)[C@H](CCC(=O)O)NC(=O)[C@H](C)NC(=O)[C@@H]1CCCN1C(=O)[C@@H]1CCCN1C(=O)[C@H](C)NC(=O)[C@@H](NC(=O)[C@@H]1CCCN1C(=O)[C@H](C)NC(=O)[C@@H]1CCCN1C(=O)[C@@H]1CCCN1C(=O)[C@H](C)NC(=O)[C@@H](NC(=O)[C@@H]1CCCN1C(=O)[C@H](CCC(=O)O)NC(=O)[C@@H]1CCCN1C(=O)[C@H](CCCNC(=N)N)NC(=O)[C@H](CO)NC(=O)[C@H](CCC(N)=O)NC(=O)[C@@H](N)CC(C)C)[C@@H](C)O)[C@@H](C)O)[C@@H](C)O)[C@@H](C)O)[C@@H](C)O)C(=O)N[C@@H](CC(=O)O)C(=O)N[C@@H](CCCCN)C(=O)N[C@@H](CCC(=O)O)C(=O)N[C@@H](CC(C)C)C(=O)N[C@@H](Cc1ccc(O)cc1)C(=O)N1CCC[C@H]1C(=O)N[C@@H](CC(C)C)C(=O)N[C@@H](C)C(=O)N[C@@H](CO)C(=O)N[C@@H](CC(C)C)C(=O)N[C@@H](CCCNC(=N)N)C(=O)N[C@@H](CO)C(=O)N[C@@H](CC(C)C)C(=O)N[C@@H](Cc1ccccc1)C(=O)NCC(=O)N[C@@H](CO)C(=O)N[C@@H](CC(=O)O)C(=O)N1CCC[C@H]1C(=O)N[C@@H](CO)C(=O)N[C@@H](CO)C(=O)N[C@@H](CCC(N)=O)C(=O)O [2x]
- half-life in in vitro degradation assays [1]: up to 30 min

Molecule: CC[C@H](C)[C@H](NC(=O)[C@@H]1CCCN1C(=O)[C@H](CCC(=O)O)NC(=O)[C@H](CCC(N)=O)NC(=O)[C@H](CCCCN)NC(=O)[C@H](CCC(N)=O)NC(=O)[C@H](CO)NC(=O)[C@@H]1CCCN1C(=O)[C@@H](NC(=O)[C@@H](NC(=O)[C@@H](NC(=O)[C@H](CCC(=O)O)NC(=O)[C@H](CCC(=O)O)NC(=O)CNC(=O)[C@H](Cc1ccccc1)NC(=O)[C@H](CCCNC(=N)N)NC(=O)[C@H](Cc1ccccc1)NC(=O)[C@H](CO)NC(=O)[C@H](CCC(=O)O)NC(=O)[C@H](CCC(=O)O)NC(=O)[C@@H]1CCCN1C(=O)[C@@H]1CCCN1C(=O)[C@H](C)NC(=O)[C@@H](NC(=O)[C@@H]1CCCN1C(=O)[C@H](CCC(=O)O)NC(=O)[C@@H]1CCCN1C(=O)[C@H](CCCNC(=N)N)NC(=O)[C@H](CO)NC(=O)[C@H](CCC(N)=O)NC(=O)[C@@H](N)CC(C)C)[C@@H](C)O)[C@@H](C)O)[C@@H](C)O)[C@@H](C)O)C(=O)N[C@@H](CC(=O)O)C(=O)N[C@@H](CCCCN)C(=O)N[C@@H](CCC(=O)O)C(=O)N[C@@H](CC(C)C)C(=O)N[C@@H](Cc1ccc(O)cc1)C(=O)N1CCC[C@H]1C(=O)N[C@@H](CC(C)C)C(=O)N[C@@H](C)C(=O)N[C@@H](CO)C(=O)N[C@@H](CC(C)C)C(=O)N[C@@H](CCCNC(=N)N)C(=O)N[C@@H](CO)C(=O)N[C@@H](CC(C)C)C(=O)N[C@@H](Cc1ccccc1)C(=O)NCC(=O)N[C@@H](CO)C(=O)N[C@@H](CC(=O)O)C(=O)N1CCC[C@H]1C(=O)N[C@@H](CO)C(=O)N[C@@H](CO)C(=O)N[C@@H](CCC(N)=O)C(=O)O [sp6]
- IC50 [2]: ~30.1 µM
- IC50 [3]: 13.8 µM
- degradation by recombinant IDE ([4]; 10 ng rIDE, IDE enzyme buffer, 10 ng sp6BY (fluorescence) or VLP/virion lysate (Western blot)): degraded by recombinant IDE
- half-life [5]: ~10 min

Molecule: insulin-FITC: recombinant FITC-labeled insulin (Sigma)
- amount of rIDE required to cleave with the same efficiency, relative to sp6 ([4]; 10 ng insulin-FITC, fluorescence, four independent experiments): 100 fold
